Laboratory results as given in US12616698B2, “Methods for reducing liver fat and for treating fatty liver disorders” (Corcept Therapeutics Incorporated, priority 2021, dated 2026).
“Also recorded” adds a separate entry of the source.

Columns and labels:
[1] = system: patients presumed to have NASH; assay: Phase 2a study: liver volume and liver size by MRI; type: in vivo, human; conditions: for Percent Change from Baseline in Liver: liver volume
Excerpt: A Phase 2a, randomized, double-blind, placebo-controlled study (ClinicalTrials.gov Identifier: NCT03823703) was begun to assess the efficacy of two dose levels of miricorilant versus placebo in reducing liver fat in patients who were presumed to have non-alcoholic steatohepatitis (NASH), that presumption based on blood tests and noninvasive measures. Written informed consent was obtained before initiating any study-mandated procedures. The full study was planned to enroll approximately 120 patients, randomized 1:1:1 to receive daily 900 mg miricorilant:600 mg miricorilant: matching placebo.
Patients were randomized in a 1:1:1 ratio to 600 mg miricorilant, 900 mg miricorilant, or placebo. Study drug was administered once daily, orally with 8 oz (240 mL) of water, along with food. Patients were instructed to take a total of 6 tablets at approximately the same time each day. Those in the 600 miricorilant group took 4 miricorilant tablets and 2 placebo tablets. Those in the 900 miricorilant group took 6 miricorilant tablets. Those in the placebo group took 6 placebo tablets. For the week 6 visit, patients were instructed to not take their daily study drug prior to the visit, but to bring their study drug to the site with them so that the study drug can be administered at the site.
MRI images showing the liver of a patient before (left-hand images) and after receiving daily 600 mg miricorilant (right-hand images) are presented in FIGS. 3A, 3B, and 3C.

[2] = Phase 2a study: body weight and plasma lipids; type: in vivo, human; conditions: patients who responded to miricorilant treatment (FIG. 4)
Description: Measures of the effectiveness of miricorilant versus placebo in reducing liver fat were assessed by magnetic resonance imaging (MRI). The change from baseline MRI measurements relative to MRI measurements taken following a course of daily miricorilant or placebo administration were assessed by magnetic resonance imaging-proton density fat fraction (MRI-PDFF). Additionally, effects of miricorilant may be assessed by measuring one or more of the following, either by comparing change from baseline after one or more days of miricorilant administration, or by comparing measurements in patients administered miricorilant versus patients administered placebo: change in liver fat assessed by MRI-PDFF; change in AST, ALT, and gamma-glutamyl transferase (GGT); change in propeptide of type III collagen (pro-C3); change in enhanced liver fibrosis (ELF) score and its components (hyaluronic acid, tissue inhibitor of metalloproteinases-1 [TIMP-1], type III procollagen [PIIINP]); change in ACTH, serum cortisol, and serum aldosterone (pharmacodynamic assessments); change in Homeostatic Model Assessment of Insulin Resistance (HOMA-IR); change in absolute body weight; and other measurements. […] For patients with diabetes, change in HbA1c and change in fasting blood glucose may be measured to assess the effects of miricorilant. […]
Liver enzyme levels were measured in the patients.

[3] = system: patients with presumed NASH; assay: Example 6 study, dosing-regimen cohorts: liver fat content (MRI-PDFF) and markers; type: in vivo, human; conditions: for Mean reduction in LFC: Week 6 (FIG. 10)
Description: This study was a double-blind, multi-center, placebo-controlled, randomized 3-arm phase 2a study (NCT03823703) conducted to assess the safety and efficacy of miricorilant in reducing liver fat content (LFC) in patients with presumed NASH. Adult patients (18-75 years) with presumed NASH were randomized 1:1:1 to miricorilant 600 mg daily, miricorilant 900 mg daily, or placebo for 12 weeks. […] Abbreviations used in this Example and in the Figures include: ALP, alkaline phosphatase; ALT, alanine aminotransferase; AST, aspartate aminotransferase; ELF, enhanced liver fibrosis; LFC, liver fat content; NASH, non-alcoholic steatohepatitis; ULN, upper limit of normal; AUC, area under the concentration-time curve; Cmax, maximum concentration; EOT, end of treatment; GGT, gamma-glutamyltransferase; INR, international normalized ratio; MRI-PDFF, magnetic resonance imaging-proton density fat fraction; pt, patient; SD, standard deviation; ULN, upper limit of normal; Wk, week.
Key inclusion criteria included that the patients be adults between 18-75 years old; be presumed to suffer from NASH with fibrosis; have LFC as measured by MRI-PDFF≥8%; have levels of AST<5×ULN and ALT<5×ULN; and have eGFR>60 mL/min/1.73 m^2. Primary endpoints included relative change in LFC from baseline by MRI-PDFF. Secondary endpoints included change from baseline in AST, ALT, GGT, and change from baseline in ELF score.
Patients were divided into different cohorts and received different regimens of miricorilant. The cohorts included patients receiving 30 mg mircorilant once per day; patients receiving 50 mg mircorilant once per day; patients receiving 100 mg mircorilant once per day; patients receiving 150 mg mircorilant once per day; patients receiving 100 mg mircorilant on Mondays, Wednesdays, and Fridays; patients receiving 100 mg mircorilant on Mondays and Fridays; and patients receiving 200 mg mircorilant once per week. Patients receiving 100 mg mircorilant on Mondays and Fridays were termed “Cohort 6”.

[4] = system: Male C57 mice; assay: High-fat diet mice: liver triglycerides and plasma AST; type: in vivo, mouse; conditions: 60 mg/kg once a day oral gavage
Description: Male C57 mice (n=24) were given a diet containing […] (a high-fat, “fast food” diet) for 3 weeks. Miricorilant (60 mg/kg) was administered once a day via oral gavage. Plasma aspartate aminotransferase (AST) was measured on days 3, 7, 12, and 18 and 6 mice were sacrificed each week at weeks 1, 2, and 3 for the miricorilant groups and at week 3 for the control (high-fat diet, no miricorilant) group for assessment of liver triglycerides.

For `O=c1[nH]c(=O)c(Cc2cccc(C(F)(F)F)c2)c([C@H]2CC[C@H](c3ccccc3)CC2)[nH]1` [miricorilant, (E)-6-(4-Phenylcyclohexyl)-5-(3-trifluoromethylbenzyl)-1H-pyrimidine-2,4-dione], which “Follow-Up Liver Volume” value ([1]; Patient 1 (responder), 900 mg, baseline 1606 mL) is on record?
The value was 1303 mL.

What about the “Follow-Up Liver Volume” value ([1]; Patient 2 (responder), 900 mg, baseline 1675 mL) of the same compound?
The value was 1314 mL.

And the “Follow-Up Liver Volume” value ([1]; Patient 3 (responder), 900 mg, baseline 3857 mL)?
Its value is 3113 mL.

What about the “Follow-Up Liver Volume” value ([1]; Patient 4 (responder), 600 mg, baseline 1899 mL) of the same compound?
The value was 1505 mL.

What about the “Percent Change from Baseline in Liver” value ([1]; Patient 1 (responder), 900 mg) of the same compound?
The value was −18.9%.

What about the “Percent Change from Baseline in Liver” value ([1]; Patient 2 (responder), 900 mg) of the same compound?
The value was −21.6%.

What about the “Percent Change from Baseline in Liver” value ([1]; Patient 3 (responder), 900 mg) of the same compound?
The value was −19.3%.

And the “Percent Change from Baseline in Liver” value ([1]; Patient 4 (responder), 600 mg)?
The value was −20.7%.

And the “Changes in body weight” value [2]?
Its value is “No significant changes”.

And the “Lipid levels (LDL and VLDL)” value ([3]; 100 mg twice per week, Mondays and Fridays (FIG. 16))?
Its value is “reductions”.

And the Glycemic markers ([3]; 100 mg twice per week, Mondays and Fridays (FIG. 17))?
Its Glycemic markers is “reductions”.

And the Fibrosis markers ([3]; 100 mg twice per week, Mondays and Fridays (FIG. 18))?
Its Fibrosis markers is “reductions”.

What about the “LFC (MRI-PDFF) and liver enzyme levels (ALT and AST)” value ([3]; 100 mg twice per week, Mondays and Fridays, twelve weeks (FIG. 15)) of the same compound?
Its value is “reductions”.

What about the “Reduction in liver fat” value ([3]; 100 mg twice weekly, over 12 weeks) of the same compound?
The value was −30%.

What about the “LFC mean % change from baseline” value ([3]; Cohort 6, miricorilant 100 mg twice weekly, week 12) of the same compound?
The value was −28.2%.

What about the “LFC mean % change from baseline” value ([3]; daily doses of miricorilant 50-150 mg, week 6) of the same compound?
Its value is −22.3%.

And the “Hepatic, lipid, and glycemic markers” value ([3]; miricorilant treatment, including 100 mg twice weekly)?
Its value is “improvements; also recorded: improved”.

And the Weight loss ([3]; patients whose ALT and/or AST levels remain below 3 times normal)?
The Weight loss was “significant”.

And the Weight loss ([3]; patients whose ALT and/or AST levels rise above 3 times normal)?
Its Weight loss is “even greater than for the other group”.

And the “Slope of LFC decline” value ([3]; responders with ALT>3×ULN)?
The value was −8.76.

And the “Slope of LFC decline” value ([3]; responders without ALT>3×ULN)?
The value was −4.24.

And the “Mean reduction in LFC” value ([3]; treatment responders with ALT>3×ULN)?
The value was −52.6%.

What about the “Mean reduction in LFC” value ([3]; treatment responders without ALT>3×ULN) of the same compound?
Its value is −25.5%.

What about the Liver triglycerides ([4]; high-fat diet for 3 weeks, starting at week 1, vs high-fat diet control (FIG. 6A)) of the same compound?
The Liver triglycerides was “rapid reduction”.

What about the “Plasma AST” value ([4]; high-fat diet, no change in dose (FIG. 6B)) of the same compound?
Its value is “transient increase at 2 weeks but normalized by 3 weeks”.
